Results: patent US8546611B2 (priority 2008, dated 2013)
Like-named read-outs stand apart in the source and are kept apart here.

Assays:
[1] = tested on: erythroid cells isolated from the bone marrow of gamma-irradiated laboratory mice males; test: Radioprotective properties (micronucleus test after gamma irradiation); details: for Number of micronuclei per 2000 cells (radioprotective properties): mice irradiated with gamma rays 1.3 Gy, then fed 48 h succinic acid 20 mg/kg body wt., critical value 16±2
[2] = tested on: erythroid cells isolated from the bone marrow of laboratory mice males; details: feed with succinic acid 20 mg/kg body wt., not irradiated, norm 5.0±1.0
Experimental: The test for genotoxicity was performed on young laboratory mice males (18-20 g; 6 animals in each group). […] The control animals were given water.

[3] = tested on: white rat females; details: in vivo; for Total died: 14 days; for animals died, extra test with doubled dose: 10000 mg/kg
[4] = tested on: patients with cardiac insufficiency; details: for patients of functional class I, day 30 / patients of functional class II, day 30 / patients of functional class III, day 30 / patients of functional class IV, day 30 / patients of functional class I, day 60 / patients of functional class II, day 60 / patients of functional class III, day 60 / patients of functional class IV, day 60 / patients of functional class I, day 90 / patients of functional class II, day 90 / patients of functional class III, day 90 / patients of functional class IV, day 90: 100 mg twice per day with standard therapy; for patients of functional class I, day 30 / patients of functional class II, day 30 / patients of functional class III, day 30 / patients of functional class IV, day 30: after 30 days; for patients of functional class I, day 60 / patients of functional class II, day 60 / patients of functional class III, day 60 / patients of functional class IV, day 60: after 60 days; for patients of functional class I, day 90 / patients of functional class II, day 90 / patients of functional class III, day 90 / patients of functional class IV, day 90: after 90 days; for patients of functional class I, day 0 / patients of functional class II, day 0 / patients of functional class III, day 0 / patients of functional class IV, day 0: with standard therapy, before treatment
Experimental: The test for cardiotonic activity of product samples was performed by measuring the dynamics of alteration of the functional class of cardiac failure. The functional class can be determined quite accurately by analyzing the everyday life activities according to a specific activity scale. The authors of this technique suppose that the criteria developed by NYHA (New York Heart Association) cannot provide accurate determination of functional class, since widely used terms, such as “everyday physical activity”, “sub-everyday activity” are not specific. On the basis of multiple tests, in which patients exercised on a treadmill, the authors calculated a scale of metabolic expenses for each kind of life activity (see Goldman L., Hashimoto B., Cook F. et al., Comparative reproducibility and validity of systems for assessing cardiovascular functional class: advantages of a new specific activity scale (1981) Circulation 64 (6):1227-34). This inquiry is designed to be used by medical personnel, interviewing a patient. After calculating the sum of possible energy expenses, the functional class of the patient is determined according to the summary criteria of the specific activity scale (Table 6).
In the tests, the patient groups were formed so that the people of the same functional class were equally distributed among different groups. Severe patients (of IV functional class; those having oncological diseases or suffered myocardial infarction/stroke to the brain 60 days or less before) were not admitted to the tests. The distribution of patients among groups was governed by a random number generator. The tests were carried out by the following protocol. Each patient took 100 mg of the preparation twice per day (in the morning and after lunch) during 3 months—against the background of a standard therapy administered by a physician. […] All the samples and placebo were encoded before sending into the clinic, so none of those involved into the tests (patients, physicians, medical personnel and the manager of tests) was aware of the nature of samples.
The functional class of patients was determined several times: at the beginning of tests (before the formation of test groups) and after 30, 60 and 90 days of treatment with the test samples. The estimation was performed on the basis of the activity scale (Table 7).

[5] = compared with “natural” SA
[6] = tested on: Wistar rat males; details: for Eosinophils, 6 h after / Lymphocytes, 6 h after / Number of leukocytes in 1 μl of blood, 6 h after / Segmentated cells, 6 h after: 6 h after immobilization; for Eosinophils, 6 h after / Lymphocytes, 6 h after / Number of leukocytes in 1 μl of blood, 6 h after / Segmentated cells, 6 h after / Eosinophils, before / Lymphocytes, before / Number of leukocytes in 1 μl of blood, before / Segmentated cells, before: 1.5 ml of 1% succinic acid perorally 10 min prior; for Eosinophils, before / Lymphocytes, before / Number of leukocytes in 1 μl of blood, before / Segmentated cells, before: at the moment of immobilization
Experimental: Examples, illustrating the method invented, are presented below. […] SA is tested on rats endured an immobilization stress; the parameter tested is lymphocytic composition of blood, which is determined before and after stress in a blood smear taken from the caudal vein. […] A detailed description of the testing technique is given in Example 13.
The animals were fixed while lying flat on their back, with their legs secured. […] Blood was taken from the caudal vein: 10 μl for counting blood corpuscles and 20 μl for preparing a smear with its subsequent staining by Romanovsky-Giemsa).
First group: 10 min prior immobilization, the animals were injected (perorally, with the help of a stomach pump) with 1.5 ml of 1% starch solution. […] Blood was taken from the caudal vein at the moment of immobilization and 6 hours later, and stained blood smears were prepared to calculate the leukogram.

| Compound | Number of micronuclei per 2000 cells (radioprotective properties) [1] | Number of micronuclei per 2000 cells (genotoxicity) [2] | Total died ([3]; female, 5000 mg/kg) | patients of functional class I, day 30 [4] | patients of functional class II, day 30 [4] | patients of functional class III, day 30 [4] | patients of functional class IV, day 30 [4] | patients of functional class I, day 60 [4] | patients of functional class II, day 60 [4] | patients of functional class III, day 60 [4] | patients of functional class IV, day 60 [4] | patients of functional class I, day 90 [4] | patients of functional class II, day 90 [4] | patients of functional class III, day 90 [4] | patients of functional class IV, day 90 [4] | patients of functional class I, day 0 ([4]; 100 mg twice per day, 3 months) | patients of functional class II, day 0 ([4]; 100 mg twice per day, 3 months) | patients of functional class III, day 0 ([4]; 100 mg twice per day, 3 months) | patients of functional class IV, day 0 ([4]; 100 mg twice per day, 3 months) | died, 13 day ([3]; female, 5000 mg/kg) | also measured |
| --- | --- | --- | --- | --- | --- | --- | --- | --- | --- | --- | --- | --- | --- | --- | --- | --- | --- | --- | --- | --- | --- |
| O=C(O)CCC(=O)O [Example 2, succinic acid, reference compound] | 22.5 ± 1.0 | 5.5 ± 1.0 | 0 | 8 | 7 | 5 | 0 | 8 | 8 | 4 | 0 | 8 | 8 | 4 | 0 | 8 | 7 | 5 | 0 | – | radioprotective effect, conclusion in words ([1]; gamma rays 1.3 Gy, 20 mg/kg body wt., 48 h, 20 mg/kg): no evident radioprotective effect; animals died, extra test with doubled dose [3]: Not a single animal died; cardiotonic properties / dynamics of functional class, conclusion in words ([4]; 100 mg twice per day, 3 months): slight positive dynamics; biological activity, overall conclusion in words [5]: do not possess high biological activity; adaptogenic properties, conclusion in words ([6]; 6-hour immobilization stress, Wistar rats): slight adaptogenic properties; Eosinophils, 6 h after ([6]; listed as Ex. 2): 0%; Lymphocytes, 6 h after ([6]; listed as Ex. 2): 70 ± 5%; Number of leukocytes in 1 μl of blood, 6 h after ([6]; listed as Ex. 2): 7700; Segmentated cells, 6 h after ([6]; listed as Ex. 2): 30 ± 3%; Eosinophils, before ([6]; listed as Ex. 2): 2 ± 2%; Lymphocytes, before ([6]; listed as Ex. 2): 76 ± 4%; Number of leukocytes in 1 μl of blood, before ([6]; listed as Ex. 2): 5700; Segmentated cells, before ([6]; listed as Ex. 2): 21 ± 4% |
| O=C(O)CCC(=O)O [Example 5, succinic acid] | 12.0 ± 1.2 | 5.0 ± 1.0 | 3 | 8 | 7 | 5 | 0 | 9 | 7 | 4 | 0 | 14 | 5 | 1 | 0 | 8 | 7 | 5 | 0 | 2 | died, 14 day ([3]; female, 5000 mg/kg): 1; Eosinophils, 6 h after ([6]; listed as Ex. 5): 1.5 ± 8%; Lymphocytes, 6 h after ([6]; listed as Ex. 5): 75 ± 4%; Number of leukocytes in 1 μl of blood, 6 h after ([6]; listed as Ex. 5): 7200; Segmentated cells, 6 h after ([6]; listed as Ex. 5): 24 ± 3%; Eosinophils, before ([6]; listed as Ex. 5): 2 ± 6%; Lymphocytes, before ([6]; listed as Ex. 5): 76 ± 5%; Number of leukocytes in 1 μl of blood, before ([6]; listed as Ex. 5): 6000; Segmentated cells, before ([6]; listed as Ex. 5): 22 ± 4% |
| O=C(O)CCC(=O)O [Example 1, succinic acid, reference compound] | 25.5 ± 1.0 | 5.5 ± 0.8 | 0 | 8 | 7 | 5 | 0 | 9 | 6 | 5 | 0 | 9 | 7 | 4 | 0 | 8 | 7 | 5 | 0 | – | animals died, extra test with doubled dose [3]: Not a single animal died; Eosinophils, 6 h after ([6]; listed as Ex. 1): 0%; Lymphocytes, 6 h after ([6]; listed as Ex. 1): 69 ± 5%; Number of leukocytes in 1 μl of blood, 6 h after ([6]; listed as Ex. 1): 7900; Segmentated cells, 6 h after ([6]; listed as Ex. 1): 29 ± 3%; Eosinophils, before ([6]; listed as Ex. 1): 2 ± 4%; Lymphocytes, before ([6]; listed as Ex. 1): 78 ± 4%; Number of leukocytes in 1 μl of blood, before ([6]; listed as Ex. 1): 5900; Segmentated cells, before ([6]; listed as Ex. 1): 21 ± 2% |
| O=C(O)CCC(=O)O [Example 8, succinic acid] | 12.0 ± 1.5 | 5.0 ± 0.8 | 3 | 10 | 6 | 4 | 0 | 11 | 6 | 3 | 0 | 14 | 5 | 1 | 0 | 8 | 7 | 5 | 0 | 1 | died, 12 day ([3]; female, 5000 mg/kg, 12 day): 1; died, 14 day ([3]; female, 5000 mg/kg): 1; Eosinophils, 6 h after ([6]; listed as Ex. 8): 1.5 ± 3%; Lymphocytes, 6 h after ([6]; listed as Ex. 8): 75 ± 4%; Number of leukocytes in 1 μl of blood, 6 h after ([6]; listed as Ex. 8): 7000; Segmentated cells, 6 h after ([6]; listed as Ex. 8): 24 ± 2%; Eosinophils, before ([6]; listed as Ex. 8): 2 ± 6%; Lymphocytes, before ([6]; listed as Ex. 8): 77 ± 5%; Number of leukocytes in 1 μl of blood, before ([6]; listed as Ex. 8): 5900; Segmentated cells, before ([6]; listed as Ex. 8): 21 ± 4% |
| O=C(O)CCC(=O)O [Example 10, succinic acid] | 12.5 ± 1.0 | 5.0 ± 1.0 | 3 | 10 | 5 | 4 | 0 | 10 | 7 | 3 | 0 | 14 | 5 | 1 | 0 | 8 | 7 | 5 | 0 | 1 | died, 14 day ([3]; female, 5000 mg/kg): 2; Eosinophils, 6 h after ([6]; listed as Ex. 10): 1.5 ± 2%; Lymphocytes, 6 h after ([6]; listed as Ex. 10): 74 ± 4%; Number of leukocytes in 1 μl of blood, 6 h after ([6]; listed as Ex. 10): 7000; Segmentated cells, 6 h after ([6]; listed as Ex. 10): 24 ± 4%; Eosinophils, before ([6]; listed as Ex. 10): 2 ± 2%; Lymphocytes, before ([6]; listed as Ex. 10): 76 ± 5%; Number of leukocytes in 1 μl of blood, before ([6]; listed as Ex. 10): 5800; Segmentated cells, before ([6]; listed as Ex. 10): 22 ± 3% |
